From ChEMBL document CHEMBL1201862, “PubChem BioAssay data set” (2004)
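Growth conditions: 96-well plates. Treatment: test compound, 48 hours, 5 concentrations. Analysis: linear interpolation between bracketing concentrations; unreached endpoints set to highest concentration. GI50 marks 50% less growth.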 Calls of active or inactive are those of the source. Cut-off read from the data, not from the text of the source: active = GI50 up to about 1.1 µM and inactive = higher. Where a SMILES comes first, the peptide text is derived from it. The star is where a group is joined. OSu = O=C1CCC(=O)N1O*; OBn = c1ccc(CO*)cc1; Bn = c1ccc(C*)cc1

Key:
Assay in all cases: DTP human tumour cell line panel, 48 h
[1] = system: A498
[2] = system: HCT-15
[3] = system: HL-60
[4] = system: HT-29
[5] = system: K562
[6] = system: MDA-MB-435
[7] = system: MOLT-4
[8] = system: Malme-3M
[9] = system: PC-3
[10] = system: RPMI-8226
[11] = system: SF-268
[12] = system: SF-295
[13] = system: SR
[14] = system: SW-620
[15] = system: T47D
[16] = system: UACC-62
[17] = system: Hs-578T
[18] = system: SF-539
[19] = system: RXF 393

Row | SMILES | GI50 [1] | GI50 [2] | GI50 [3] | GI50 [4] | GI50 [5] | GI50 [6] | GI50 [7] | GI50 [8] | GI50 [9] | GI50 [10] | GI50 [11] | GI50 [12] | GI50 [13] | GI50 [14] | GI50 [15] | GI50 [16] | GI50 [17] | GI50 [18] | GI50 [19]
1 | CN(C)CCN(C)P12(Oc3ccccc3O1)Oc1c(Cl)c(Cl)c(Cl)c(Cl)c1O2 | 60.5 µM (inactive) | 40 µM | 18.8 µM (inactive) | 43.8 µM (inactive) | 35.6 µM (inactive) | 50.9 µM (inactive) | 34 µM (inactive) | 46.6 µM (inactive) | 33.7 µM (inactive) | 29.1 µM (inactive) | 36.1 µM (inactive) | 37.1 µM (inactive) | 35.2 µM (inactive) | 47.4 µM (inactive) | 59.8 µM (inactive) | 33.3 µM (inactive) |  |  | 
2 | N#CC(CC(=O)O)=C(c1ccccc1)c1ccccc1 | > 100 µM (inactive) | > 100 µM |  | > 100 µM (inactive) | > 100 µM (inactive) | > 100 µM (inactive) |  | > 100 µM (inactive) | > 100 µM (inactive) | > 100 µM (inactive) | > 100 µM (inactive) | > 100 µM (inactive) | > 100 µM (inactive) | > 100 µM (inactive) |  | > 100 µM (inactive) | 70.1 µM (inactive) | > 100 µM (inactive) | 
3 | CCOC(OCC)[C@@H]1C[C@@H]2N(O[C@H](OC3CCCC3(c3ccccc3)c3ccccc3)[C@H](OC(C)=O)[C@@]2(CC)Cc2ccc(OC)c(OC)c2)O1 (some centres undefined) |  | > 100 µM |  | > 100 µM (inactive) | > 100 µM (inactive) | > 100 µM (inactive) | > 100 µM (inactive) |  | > 100 µM (inactive) |  | > 100 µM (inactive) | > 100 µM (inactive) | 84.7 µM (inactive) | > 100 µM (inactive) | > 100 µM (inactive) | > 100 µM (inactive) |  | > 100 µM (inactive) | > 100 µM (inactive)
4 | COc1ccc(-c2cc(-c3ccc(Nc4ccnc5cc(Cl)ccc45)cc3)nc(N)c2C#N)c2ccccc12 | > 100 µM (inactive) | > 100 µM |  | > 100 µM (inactive) | > 100 µM (inactive) | > 100 µM (inactive) | > 100 µM (inactive) | > 100 µM (inactive) | > 100 µM (inactive) | > 100 µM (inactive) | > 100 µM (inactive) | > 100 µM (inactive) | > 100 µM (inactive) | > 100 µM (inactive) | > 100 µM (inactive) | > 100 µM (inactive) |  | > 100 µM (inactive) | > 100 µM (inactive)
5 | Cc1ccc(S(=O)(=O)NC(=O)Nc2ccc(C(=O)O)c(O)c2)cc1 | 68.2 µM (inactive) | > 100 µM | > 100 µM (inactive) | > 100 µM (inactive) | > 100 µM (inactive) | > 100 µM (inactive) | > 100 µM (inactive) | > 100 µM (inactive) | > 100 µM (inactive) | > 100 µM (inactive) | > 100 µM (inactive) | > 100 µM (inactive) | > 100 µM (inactive) | > 100 µM (inactive) |  | > 100 µM (inactive) | > 100 µM (inactive) | > 100 µM (inactive) | > 100 µM (inactive)
6 | CCCCN(CCCC)CC(O)c1cc(-c2ccc(C(F)(F)F)cc2)nc(-c2ccc(C(F)(F)F)cc2)c1 (centres undefined) | > 100 µM (inactive) | 26.4 µM | 32 µM (inactive) | > 100 µM (inactive) | 76.2 µM (inactive) | 59.6 µM (inactive) | > 100 µM (inactive) | 44 µM (inactive) | 55 µM (inactive) | 39.9 µM (inactive) | > 100 µM (inactive) | 26.7 µM (inactive) | > 100 µM (inactive) | > 100 µM (inactive) | 34.4 µM (inactive) | > 100 µM (inactive) |  | > 100 µM (inactive) | 
7 | CCCCOCCOCCOC1=C(Cl)C(=O)c2c(O)ccc(O)c2C1=O | 2.36 µM (inactive) | 0.388 µM | 0.144 µM (active) | 0.484 µM (active) | 0.0419 µM (active) |  | 0.0138 µM (active) | 1.46 µM (inactive) | 1.62 µM (inactive) | 0.212 µM (active) | 0.759 µM (active) | 1.73 µM (inactive) | < 0.01 µM (active) | 0.283 µM (active) | 0.488 µM (active) | 0.8 µM (active) | 2.4 µM (inactive) | 1.51 µM (inactive) | 0.809 µM (active)
8 | COc1ccc2c(c1)C/C(=C\c1ccc(O)c(OC)c1)C2=O | > 100 µM (inactive) | > 100 µM | > 100 µM (inactive) | > 100 µM (inactive) | > 100 µM (inactive) |  | > 100 µM (inactive) |  | > 100 µM (inactive) | > 100 µM (inactive) | > 100 µM (inactive) |  | > 100 µM (inactive) | > 100 µM (inactive) |  | > 100 µM (inactive) | > 100 µM (inactive) | > 100 µM (inactive) | 
9 | CC(C)c1cc(C(C)C)c(Cl)c(Cl)c1O.CC(C)c1cc(Cl)c(O)c(C(C)C)c1Cl |  | 36.7 µM | 18.3 µM (inactive) | 24 µM (inactive) | 16.9 µM (inactive) | 21.4 µM (inactive) |  | 24.8 µM (inactive) | 19.5 µM (inactive) | 20.4 µM (inactive) | 18.8 µM (inactive) | 18.7 µM (inactive) | 9.25 µM (inactive) | 25.8 µM (inactive) |  | 19.6 µM (inactive) | 16.6 µM (inactive) | 20 µM (inactive) | 12.5 µM (inactive)
10 | O=C(O)CCC(NC(=O)c1ccc(CNc2nc3ccccc3nc2C(=O)O)cc1)C(=O)O (centres undefined) | > 100 µM (inactive) | > 100 µM |  | > 100 µM (inactive) | > 100 µM (inactive) | > 100 µM (inactive) | > 100 µM (inactive) | > 100 µM (inactive) | > 100 µM (inactive) | > 100 µM (inactive) | > 100 µM (inactive) | > 100 µM (inactive) | > 100 µM (inactive) | > 100 µM (inactive) |  | > 100 µM (inactive) | > 100 µM (inactive) |  | 
11 | NC1CC(=O)c2sc(I)cc21 (centres undefined) | > 100 µM (inactive) | 35.8 µM | 18.7 µM (inactive) | > 100 µM (inactive) | 74 µM (inactive) | 88.7 µM (inactive) | 71.9 µM (inactive) | > 100 µM (inactive) | > 100 µM (inactive) | 92.5 µM (inactive) | > 100 µM (inactive) |  | 8.39 µM (inactive) | 53.6 µM (inactive) | > 100 µM (inactive) | > 100 µM (inactive) |  | > 100 µM (inactive) | > 100 µM (inactive)
12 | O=C(Nc1ccc([N+](=O)[O-])cc1)C1C(=O)C(=O)N(c2ccc([N+](=O)[O-])cc2)C1=O (centres undefined) | > 100 µM (inactive) | 61.1 µM | > 100 µM (inactive) | > 100 µM (inactive) | 8.07 µM (inactive) |  | > 100 µM (inactive) | > 100 µM (inactive) |  | 46.5 µM (inactive) | > 100 µM (inactive) | 80.2 µM (inactive) | 59 µM (inactive) | 17.6 µM (inactive) |  | 2.72 µM (inactive) |  | 94.8 µM (inactive) | > 100 µM (inactive)
13 | CC(C)CC(NC(=O)C(N)CCC(=O)OCc1ccccc1)C(=O)NC(COCc1ccccc1)C(=O)NC(Cc1ccccc1)C(=O)ON1C(=O)CCC1=O (centres undefined) (H-E(OBn)LS(Bn)F-OSu; configuration not given here) |  |  |  | 38.2 µM (inactive) |  | 33 µM (inactive) | 25.5 µM (inactive) | 29.2 µM (inactive) | 24.5 µM (inactive) | 19.9 µM (inactive) | 48.3 µM (inactive) | 24.4 µM (inactive) | 28.6 µM (inactive) | 37.8 µM (inactive) |  | 26.1 µM (inactive) | 26.4 µM (inactive) |  | 21.8 µM (inactive)
14 | CC(=N/NC(=S)N1CCCCCC1)/C(C)=N\NC(=S)N1CCCCCC1 | 1.78 µM (inactive) | 4.34 µM |  | 2.63 µM (inactive) | 13.2 µM (inactive) | 1.83 µM (inactive) | > 100 µM (inactive) | 5.5 µM (inactive) | 5.86 µM (inactive) | 5.66 µM (inactive) | 3.45 µM (inactive) | 4.93 µM (inactive) |  | 2.37 µM (inactive) | 1.75 µM (inactive) | 4.29 µM (inactive) | 3.87 µM (inactive) | 20.7 µM (inactive) | 3.77 µM (inactive)
15 | CCC(=O)N(c1ccccc1)C(C)CN1CCC(O)(c2cccc(C(F)(F)F)c2)CC1 (centres undefined) | 26.8 µM (inactive) | 30.6 µM | 17.8 µM (inactive) | 13 µM (inactive) | 20.9 µM (inactive) | 20.2 µM (inactive) | 17.9 µM (inactive) |  | 19.3 µM (inactive) | 18.7 µM (inactive) |  | 35.4 µM (inactive) |  | > 100 µM (inactive) | 33.7 µM (inactive) | 22.1 µM (inactive) | 34.8 µM (inactive) | 23.2 µM (inactive) | > 100 µM (inactive)
16 | CCOC(=O)CCC(NC(=O)c1ccc(NCc2ccc3nc(OC)c(OC)nc3c2)c2ccccc12)C(=O)OCC (centres undefined) | 61.8 µM (inactive) | > 100 µM | 0.0836 µM (active) | > 100 µM (inactive) | > 100 µM (inactive) | > 100 µM (inactive) | > 100 µM (inactive) | > 100 µM (inactive) | 61.4 µM (inactive) |  | 42.7 µM (inactive) | 36.2 µM (inactive) |  | > 100 µM (inactive) | > 100 µM (inactive) | 73.8 µM (inactive) |  | 20.8 µM (inactive) | 31 µM (inactive)
17 | CC(C)CC(NC(=O)C(COc1ccc([N+](=O)[O-])cc1)Cc1ccccc1)C(=O)Nc1ccccc1 (centres undefined) | 24 µM (inactive) | 13.3 µM | 10.3 µM (inactive) |  | 19.2 µM (inactive) | 14.1 µM (inactive) | 22.1 µM (inactive) | 5.02 µM (inactive) | 38.7 µM (inactive) | 40.5 µM (inactive) |  | 11.2 µM (inactive) | 41.5 µM (inactive) | 24.3 µM (inactive) |  | 11.1 µM (inactive) |  | 6.68 µM (inactive) | 16.3 µM (inactive)
